{"source": "ChEMBL document CHEMBL2034922", "about": "“Identification, optimisation and in vivo evaluation of oxadiazole DGAT-1 inhibitors for the treatment of obesity and diabetes” (Bioorg Med Chem Lett, 2012)", "key": {"[1]": {"assay": "Lipophilicity, log D of the compound", "conditions": "octanol/water"}, "[2]": {"assay": "Intrinsic clearance in human microsomes", "type": "ADME, Microsome"}, "[3]": {"assay": "Cmax in rat at 2 mg/kg, po", "type": "ADME, organism-based", "parameters": "dose 2 mg/kg, route oral", "conditions": "in vivo"}, "[4]": {"assay": "Oral bioavailability in rat at 5 mg/kg", "type": "ADME, organism-based", "conditions": "in vivo"}, "[5]": {"biological_target": "T1, Diacylglycerol O-acyltransferase 2 (Homo sapiens) (UniProt Q96PD7)", "T1 sequence (whole entry)": "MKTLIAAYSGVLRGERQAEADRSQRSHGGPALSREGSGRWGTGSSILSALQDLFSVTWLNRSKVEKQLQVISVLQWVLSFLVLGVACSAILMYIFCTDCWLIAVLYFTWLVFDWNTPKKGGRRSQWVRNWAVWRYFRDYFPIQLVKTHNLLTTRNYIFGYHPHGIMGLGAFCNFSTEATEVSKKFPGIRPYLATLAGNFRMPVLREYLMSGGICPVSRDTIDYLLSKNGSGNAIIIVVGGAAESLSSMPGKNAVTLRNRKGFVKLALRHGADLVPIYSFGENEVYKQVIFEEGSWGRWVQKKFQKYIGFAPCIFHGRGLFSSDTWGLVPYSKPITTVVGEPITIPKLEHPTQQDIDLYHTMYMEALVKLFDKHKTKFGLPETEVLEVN", "assay": "Inhibition of DGAT2 expressed in baculovirus infected insect sf9 cells using [14C] oleoyl coenzyme A at 10 uM after 30 mins by scintillation counting"}}}
{"smiles": "O=C(Nc1ccc(N2CCOCC2)nc1)c1nnc(Nc2ccc(F)c(F)c2)o1", "values": [{"measurement": "logD", "setting": "[1]", "result": 2.9}]}
{"smiles": "O=C(Nc1ccc(N2CCOCC2)nc1)c1nnc(Nc2cccc(-c3ccccc3)c2)o1", "values": [{"measurement": "logD", "setting": "[1]", "result": "> 4"}]}
{"smiles": "O=C(Nc1ccc(N2CCOCC2)nc1)c1nnc(Nc2cccc(OCc3ccccc3)c2)o1", "values": [{"measurement": "logD", "setting": "[1]", "result": "> 4.2"}]}
{"smiles": "O=C(Nc1ccc(N2CCSCC2)nc1)c1nnc(Nc2ccccc2F)o1", "values": [{"measurement": "microsomal CLint", "setting": "[2]", "result": 258, "unit": "µL/min/mg"}, {"measurement": "Cmax", "setting": "[3]", "result": 20, "unit": "nM"}, {"measurement": "logD", "setting": "[1]", "result": 3}]}
{"smiles": "O=C(Nc1ccc(N2CCOCC2)nc1)c1nnc(Nc2ccccc2F)o1", "values": [{"measurement": "logD", "setting": "[1]", "result": 2.7}]}
{"smiles": "O=C(Nc1ccc(N2CCOCC2)cc1)c1nnc(NC(=O)C2(c3ccc(Cl)cc3)CCC2)o1", "values": [{"measurement": "logD", "setting": "[1]", "result": 3.2}]}
{"smiles": "Cc1cccc(Nc2nnc(C(=O)Nc3ccc(N4CCOCC4)nc3)o2)c1", "values": [{"measurement": "logD", "setting": "[1]", "result": 3.4}]}
{"smiles": "O=C(O)Cc1ccc(-c2ccc(NC(=O)c3nnc(Nc4ccccc4F)o3)cc2)cc1", "values": [{"measurement": "logD", "setting": "[1]", "result": 1.5}]}
{"smiles": "CC(C)(C(=O)Nc1nnc(C(=O)Nc2ccc(N3CCOCC3)cc2)o1)c1ccc(Cl)cc1", "values": [{"measurement": "logD", "setting": "[1]", "result": 3}, {"measurement": "bioavailability", "setting": "[4]", "result": 3, "unit": "%"}]}
{"smiles": "O=C(Nc1ccc(N2CCOCC2)cc1)c1nnc(Nc2ccccc2F)o1", "values": [{"measurement": "inhibition", "setting": "[5]", "result": 0, "unit": "%"}]}
{"smiles": "CCOc1cccc(Nc2nnc(C(=O)Nc3ccc(N4CCOCC4)nc3)o2)c1", "values": [{"measurement": "logD", "setting": "[1]", "result": 3.6}]}
{"smiles": "O=C(Nc1ccc(N2CCOCC2)cc1)c1nnc(NC(=O)C2(c3ccc(Cl)cc3)CCCC2)o1", "values": [{"measurement": "logD", "setting": "[1]", "result": 3.7}]}
{"smiles": "COc1cccc(Nc2nnc(C(=O)Nc3ccc(N4CCOCC4)nc3)o2)c1", "values": [{"measurement": "logD", "setting": "[1]", "result": 2.8}]}
{"smiles": "O=C(Nc1ccc(N2CCOCC2)nc1)c1nnc(Nc2ccccc2)o1", "values": [{"measurement": "logD", "setting": "[1]", "result": 2.9}]}
